Experimental data taken from US20190192456A1, “USE OF CELIPROLOL FOR TREATING VASCULAR EHLERS-DANLOS SYNDROME IN WOMEN DURING PREGNANCY AND PERIPARTUM PERIOD” (Assistance Publique-Hôpitaux de Paris (AP-HP), priority 2017, published 2019).

How the values were obtained:
Format in all cases: in vivo, human
[1] = tested on: newborn of mothers who received celiprolol during pregnancy and delivery; assay: Newborn well-being after indirect exposure to celiprolol during pregnancy; settings: n=7 newborn of mothers who received celiprolol during pregnancy and delivery
Description: For each newborn, weight and height at birth were recorded and presented as a function of term of pregnancy, as previously described. Health status at birth was assessed by the APGAR score noted in the children's health record, and any significant event that occurred at birth was collected (respiratory failure, pneumothorax, significant verifiable birth defects).
Reference charts for birth weight and size were constructed according to Battaglia et al. with normal values based on approximately 57 000 newborn of the Paris (France) area as reported by Salomon et al.[15].

[2] = tested on: parturients with vascular Ehlers-Danlos syndrome; assay: Maternal mortality analysis of vascular EDS families; settings: one patient, 7 months after delivery; programmed early c-section, unremarkable arterial monitoring after the postpartum period
Excerpt: For the mortality analysis, the medical charts and pedigrees of all patients known to the French referral center for rare vascular diseases (AP-HP, Centre de Référence des Maladies Vasculaires Rares, Hôpital Européen Georges Pompidou, Paris, France) for having a molecularly confirmed vascular EDS, were screened for past or ongoing pregnancies, and for maternal deaths in probands and pedigrees. All families known to our center with at least one proband diagnosed with vascular EDS (nationwide patient cohort) were considered for participation to the maternal mortality analysis after exclusion of ascendants of patients with neomutations (see below). Patients with a personal history of pregnancy were considered for participation to the obstetrical interview study. […]
Maternal deaths were determined according to definitions of the 10th revision of the International Classification of Diseases of the World Health Organization (Geneva 2004). Pregnancy-related deaths defined as the death of a woman while pregnant or within 42 days of termination of pregnancy, irrespective of the cause of death, were determined for probands, first and second degree ascendants. […] A global maternal mortality ratio was then determined, which encompassed pregnancy-related and late maternal mortality ratios. […]

[3] = tested on: parturients with molecularly confirmed vascular Ehlers-Danlos syndrome; assay: Maternal morbidity study (obstetrical interview study) of vascular EDS parturients; prescription of celiprolol during pregnancy, delivery and post-partum period
Description: For each pregnancy, date and time of delivery were recorded, as well as term of pregnancy at birth, expressed in weeks of amenorrhea (WA). In case of preterm labour or premature rupture of membranes (PROM), gestational age of occurrence was noted. Ongoing treatments during pregnancy were recorded, especially betablockers (celiprolol). In case of anaesthesia, type of ([…], general) and complications were collected (haematoma, leakage of spinal fluid, pneumothorax for general anaesthesia). Delivery was described as follows: type (vaginal, c-section), duration of labour for vaginal delivery and the use of forceps or episiotomy. Vascular complications were defined by the occurrence of arterial dissections and ruptures during pregnancy, delivery and during the post-partum period defined as 42 days after delivery. Haemorrhagic complications were defined by, either significant bleeding when reported as such by patients and/or medical records, either by bleeding requiring blood transfusion or post-partum haemorrhage. Bleeding events >1000 ml with hemodynamic collapse are reported as haemorrhagic shock. Perineal damage was defined by the occurrence of a perineal tear related or not with episiotomy. Perineal injury was graded according to Sultan et al., from grade I (limited defect of perineal skin), to grade IV (injury of the perineum involving the anal sphincter complex and epithelium) perineal tears.
After the first interview, all relevant obstetrical data, especially term of pregnancies and obstetrical complications (preterm labour, PROM, uterine rupture, haemorrhage) were independently checked for accuracy of diagnosis and staging by a senior obstetrician during a second interview, and hospital records of deliveries were checked, when available.
Programmed Early C-Section and Prescription of Celiprolol
In n=12 (20%) pregnancies of this cohort, diagnosis of maternal vascular EDS (n=11, 28%) was suspected (n=2) or genetically confirmed (n=9) at the time of delivery, with consequent obstetrical management (prescription of celiprolol 200 mg BID in n=7 patients covering 7/12 pregnancies; preterm c-section in n=11/12 deliveries, of which 9 were scheduled).

[4] = patients treated with celiprolol 200 mg BID, n=7

Structure (SMILES): CCN(CC)C(=O)Nc1ccc(OCC(O)CNC(C)(C)C)c(C(C)=O)c1 (centres unmarked) [celiprolol, N′-(3-Acetyl-4-(3-((1,1-dimethylethyl)amino)-2-hydroxypropoxy)phenyl)-N,N-diethylurea]
- neonatal hypoglycaemia [1]: none of the n=7 newborn
- other indications of adverse effects of indirect exposure to celiprolol during pregnancy [1]: nor had other indications of adverse effects
- late maternal death by spontaneous intra-abdominal arterial rupture [2]: occurred spontaneously despite a programmed early c-section, medication by celiprolol
- tolerability of celiprolol throughout pregnancy and the post-partum period ([3]; celiprolol 200 mg BID in n=7 patients covering 7/12 pregnancies): well tolerated
- dose adjustment in comparison to the dosage prescribed prior to the beginning of each pregnancy ([3]; celiprolol 200 mg BID, n=7 patients, throughout pregnancy and the post-partum period): no dose adjustment was necessary in any patient
- arterial event (dissection, rupture) [3, 4]: No arterial event (dissection, rupture)
- maternal survival of pregnancies and post-partum periods [3, 4]: all patients treated with celiprolol survived
- uterine rupture [3, 4]: nor uterine rupture occurred in any patient
